Molecules are shown by their SMILES. Records with an inconclusive call do not appear. Activity calls are given as the source filed them.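 How the source made its calls: active means compounds lowering the luciferase signal with a fitted half-maximal dose at most twice their top valid dose (cut at about 30 µM in these data); inconclusive means flat fits with moderate signal loss, or poor fits; inactive means the rest.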

The experiment concerns Clone20 osteoblast Shn3 3'UTR firefly luciferase, 24 h. Briefly: Schnurri-3 3'UTR-luciferase signal suppressors – cell-based, Clone20 osteoblasts, luminescence, dry powder, set 2, dose response (AID 743417).
Consider `CC(C)N(CCC(=O)c1ccc2ccccc2c1)Cc1ccccc1`, for which the AC50 (as a rule, the concentration giving half of the maximal activity seen) was 4220 nM.

On to `Nc1nc(N)c2cc(S(=O)(=O)c3ccc4ccccc4c3)ccc2n1`, for which the half-maximal activity concentration (AC50) is 3370 nM. In the case of `COc1ccc(NC(=O)/C(Cl)=C(/Cl)S(=O)Cc2ccc(Cl)cc2)cn1` (stereo not drawn), the AC50 is 1340 nM. As for `Oc1ccc(-c2n[nH]c(C(F)(F)F)c2-c2ccccc2)c(O)c1`, the figure is 283 nM. As for `COC(=O)C1=C(c2ccc(OCc3ccccc3)cc2)C[C@@H]2CC[C@H]1N2C(=O)NCc1ccc(C(C)(C)C)cc1`, the figure is 6840 nM; as for `CC(C)C[C@@H](CN1CCCC1CN1C(=S)NC[C@@H]1Cc1ccc(O)cc1)N1C[C@H](Cc2ccc(O)cc2)N(CC2CCCCCC2)C1=S` (stereo partly drawn), 18800 nM. Turning to `CCOc1cc(S(=O)(=O)NCc2ccncc2)ccc1Cl`, the AC50 was below 260 nM.

In the case of `CCc1ccc(O)c(CNCCNCc2cc(CC)ccc2O)c1`, the half-maximal activity concentration (AC50) was 1380 nM. With `CN(CC(=O)Nc1cc(S(=O)(=O)N2CCCC2)ccc1Cl)Cc1ccc2c(c1)OCO2`, the half-maximal activity concentration (AC50) is 13100 nM.

In the case of `CCC(O)C1CCN(C(=O)c2cc(COc3ccc4ncccc4c3)on2)CC1` (stereo not drawn), the AC50 is 505 nM. The same measure for `C[C@H](NC(=O)c1nc[nH]c1C(=O)NCc1ccc(CNC(=O)OC(C)(C)C)cc1)c1ccccc1`: 11700 nM. For `CCc1nnc(NC(=O)c2nc(S(=O)(=O)Cc3ccccc3)ncc2Cl)s1`, the half-maximal activity concentration (AC50) is 2720 nM. As for `CCS(=O)(=O)c1ncc(Cl)c(C(=O)Nc2ccccc2OC)n1`, the figure is 3710 nM; as for `CC(C)(O)C#Cc1ccc([C@@H]2C[C@H]3CN(c4ccccc4)C(=O)[C@]34CCCN24)s1`, 4930 nM.

Turning to `CN(C)CC(C(=O)Cc1ccccc1)c1ccccc1` (stereo not drawn), the half-maximal activity concentration (AC50) was 7810 nM. As for `CC1(Cc2ccc(OC(F)(F)F)cc2)C(=O)Nc2c(Cl)ccc(Cl)c21` (stereo not drawn), the figure is 25700 nM; as for `CCC(=O)NC(C)c1cc(Cl)c2cccnc2c1O` (stereo not drawn), 5190 nM. As for `O=C(N[C@@H]1C/C=C\C[C@H](CC(=O)N(CCO)Cc2ccccc2)C(=O)NC[C@@H](c2ccccc2)OC1=O)OCC1c2ccccc2-c2ccccc21`, the figure is 4500 nM; as for `CCOC(=O)c1cnc(-n2nc(C)cc2C)nc1NNc1nc(-c2ccccc2)cc(-c2ccccc2)n1`, 3840 nM; as for `CCS(=O)(=O)c1ccc2oc(SCC(=O)N3CCCCC3)nc2c1`, > 70000 nM (inactive). As for `CCOC(=O)C1CCCN(S(=O)(=O)c2ccc(S(=O)(=O)N3CCCC3)cc2)C1` (stereo not drawn), the figure is 821 nM. For the compound `CC(=O)NC(c1ccc(Cl)cc1)c1ccc2cccnc2c1O` (stereo not drawn), the AC50 is 299 nM. As for `CN(Cc1cccc(Cl)c1Cl)C(=O)c1cccc(S(=O)(=O)N2CCN(Cc3ccccc3)CC2)c1`, the figure is 3380 nM. As for `O=C1NC2C(=CC(O)C(O)C2O)c2cc3c(cc21)OCO3` (stereo not drawn), the figure is 2220 nM. As for `Cc1nn(Cc2noc(C(=O)NC3CCC(C)CC3)n2)c(C)c1Br` (stereo not drawn), the figure is 3280 nM; as for `C=C1CC2(OC1=O)c1ccccc1CCc1ccccc12`, 1280 nM.

Regarding `O=C(c1ccc(S(=O)(=O)c2ccc(F)cc2)c([N+](=O)[O-])c1)N1CCCCCC1`, the concentration at half-maximal activity (AC50) is 2380 nM. The same measure for `C[C@H]1C[C@@H](C)C(=O)[C@@H]([C@H](O)CC2CC(=O)NC(=O)C2)C1`: 307 nM.

On to `CCCNC(=O)c1nnsc1S(=O)(=O)c1ccc(Cl)cc1`, for which the AC50 was 3630 nM. The same measure for `COc1ccc(CC(=O)Nc2cccc(S(=O)(=O)N3CCCCCC3)c2)cc1OC`: 2270 nM.

For the compound `COc1cc(SC)ccc1C(=O)Nc1nc(C)cs1`, the half-maximal activity concentration (AC50) is 7090 nM. The same measure for `CCCCN(c1nc2ccccc2nc1Cl)S(=O)(=O)c1ccc(C)cc1`: 7220 nM; for `O=C(Nc1ccc(Oc2ccccc2)cc1)C1CCN(c2c3c(nc4ncnn24)CCC3)CC1`: 5640 nM. The same measure for `COc1ccc(C(=O)Nc2nc3ccccc3s2)c(OC)c1`: 523 nM; for `CCCn1c(NC(=O)c2ccc(Cl)c(S(=O)(=O)N3CCCC3)c2)nc2ccccc21`: 8390 nM. The same measure for `COc1ccc2c(c1)c(CC(=O)Nc1cc(C)ccc1C)c(C)n2C(=O)c1ccc(Cl)cc1`: 5690 nM; for `CC[C@@H](C)[C@H](NC(=O)OC(C)(C)C)c1nnc(S(=O)(=O)Cc2cc(C)ccc2C)o1`: 5770 nM; for `c1csc(CCNc2ncnc3sc4c(c23)CCC4)c1`: 1700 nM. Regarding `Oc1c(CN2CCOCC2)cc(COCc2ccccc2)c2cccnc12`, the AC50 is 1280 nM. As for `Oc1cccc(C(Nc2nccs2)c2ccc3cccnc3c2O)c1` (stereo not drawn), the figure is 1670 nM. The same measure for `Cc1ccc(CNC(=O)CSc2c3c(nc4ccc(Cl)cc24)CCCC3)o1`: 5980 nM; for `CC(C)CCOc1cccc(OCC(=O)Nc2ccncc2)c1`: 571 nM.

As to `CN(CCOc1ccc(Cl)cc1)C(=O)c1cccc(S(=O)(=O)N2CCN(c3ccc(F)cc3)CC2)c1`, the AC50 is 1770 nM.

Regarding `c1coc(CN(Cc2ccco2)c2ncnc3c2oc2ccccc23)c1`, the concentration at half-maximal activity (AC50) is 5450 nM. As for `C=C1CC(COc2ccc3c(C)c(Cl)c(=O)oc3c2)(c2ccccc2)OC1=O` (stereo not drawn), the figure is 4820 nM; as for `CCN(CC)Cc1c(O)ccc2c1O/C(=C\C=C\c1ccccc1)C2=O`, 1960 nM; as for `O=[N+]([O-])c1ccc2ncnc(N3CCN(Cc4ccc5c(c4)OCO5)CC3)c2c1`, 2730 nM. The same measure for `CC(O)(c1ccncc1)c1nc(-c2cccc(C(F)(F)F)c2)cs1` (stereo not drawn): 5340 nM; for `CC(NC(=O)c1cc(COc2ccc3ncccc3c2)on1)c1ccc(F)cc1` (stereo not drawn): 2280 nM.

For the compound `COC(=O)C12OCC34C(CC5C(C)=C(O)C(=O)CC5(C)C3C(O)C1O)OC(=O)C(OC(=O)C=C(C)C)C24` (stereo not drawn), the concentration at half-maximal activity (AC50) is below 260 nM. The same measure for `O=C(OCn1ncc(Cl)c(Cl)c1=O)c1ccccc1Cl`: 3560 nM; for `Cc1cccc(CCN2C(N(C)C)=NC[C@@H]2CC(C)C)c1`: 1450 nM; for `CCN(CC)c1ccc(CNc2nc3ccccc3n2CCN2CCCCC2)cc1`: 2640 nM. The same measure for `Cc1ccc(S(=O)(=O)N2CCc3ccccc3CC2)cc1`: 3290 nM; for `Cc1cccc(NS(=O)(=O)c2ccc(C3CCCCC3)cc2)c1`: 5130 nM; for `Cc1ccc(S(=O)(=O)CCC(=O)OCC(=O)Nc2cc(S(=O)(=O)N3CCOCC3)ccc2C)cc1`: 17800 nM. The same measure for `O=C(O)c1cccc(COc2ccc(CO)cc2Cl)c1`: 1040 nM. On to `CCN(CC)c1ccc(NC(=O)CN2C(=O)CSc3ncccc32)c(C)c1`, for which the AC50 was 1780 nM. As for `CN(C(=O)OC(C)(C)C)c1ccc(-c2nc3ccccc3s2)cc1`, the figure is below 260 nM. As for `COc1cc(SC)ccc1C(=O)Nc1nc2ccccc2[nH]1`, the figure is below 260 nM; as for `CCOc1ccc(S(=O)(=O)NCc2ccncc2)cc1`, 261 nM; as for `O=c1[nH]c2ccccc2n1C1CCN(C(CCc2ccccc2)c2nnnn2Cc2ccccc2)CC1` (stereo not drawn), 1230 nM.

Turning to `CCC(=O)c1cn(CC(=O)Nc2cccc(C)c2C)c2ccccc12`, the AC50 was 1520 nM. The same measure for `COC(=O)[C@@]12CCCCN1[C@H](c1ccc(SC3CCCCC3)c(OC)c1)[C@@H]1C(=O)N(C)C(=O)[C@@H]12`: 21400 nM. The same measure for `CN(Cc1nccs1)C(=O)c1cc(COc2cccc3cnccc23)on1`: 2770 nM; for `COc1ccc(Cn2c(SCc3ccccc3C)nc3cc(OC)c(OC)cc3c2=N)cc1`: 5460 nM.

For `CCCCCOc1ccc(Br)cc1CSC(=N)N`, the concentration at half-maximal activity (AC50) was 1470 nM.

Take `CC(C)(C)OC(=O)NCCCCCNC(=O)c1nc[nH]c1C(=O)NCc1ccc(CNC(=O)OC(C)(C)C)cc1`: the AC50 is 3950 nM. As for `C#CC(=O)N(c1cc(OC)ccc1OC)C(C(=O)NC1CCCC1)c1cccs1` (stereo not drawn), the figure is 4570 nM. Turning to `NC(=O)c1cc(N2C(=O)C=CC2=O)ccc1Cl`, the half-maximal activity concentration (AC50) was 11300 nM. The same measure for `CCCC(=O)NC(c1ccc(Cl)cc1)c1ccc2cccnc2c1O` (stereo not drawn): 937 nM; for `O=S(=O)(c1ccc2c(c1)OCCO2)N1CCN(c2ncnc3sccc23)CC1`: 1450 nM.

Take `O=C(c1nnsc1S(=O)c1ccc(Cl)cc1)N1CCOCC1` (stereo not drawn): the concentration at half-maximal activity (AC50) was 930 nM. As for `CCn1c(=NC(=O)CS(=O)(=O)c2ccccc2)sc2cccc(OC)c21`, the figure is 1680 nM; as for `CCN(CC)S(=O)(=O)c1ccc(S(=O)(=O)N2CCCC(C(=O)NC3CC3)C2)cc1` (stereo not drawn), 2900 nM; as for `COC(=O)c1cn(NC(=O)c2cc([N+](=O)[O-])ccc2F)c(=O)c2ccccc12`, 2850 nM. As for `COc1ccc(NC(=O)Cn2nnc(-c3ccccc3NS(=O)(=O)c3ccccc3)n2)cc1`, the figure is 485 nM; as for `CCN1CCN(Cc2ccc(NC(=O)c3cc(NC(=O)c4cncc(-c5ccc(C#N)cc5)c4)cc(OC)c3)cc2C(F)(F)F)CC1`, 3360 nM.

With `CC(Nc1ncnc2ccccc12)c1ccccc1` (stereo not drawn), the concentration at half-maximal activity (AC50) was 355 nM. As for `Cn1cccc1C(=O)NC(=O)COC(=O)c1ccc(S(C)(=O)=O)c([N+](=O)[O-])c1`, the figure is 15100 nM; as for `CC(C)N=C(N)N=C(N)Nc1ccc(Cl)cc1`, 370 nM; as for `COC(=O)C[C@]1(C(=O)OC)CN(C#N)N(c2ccc(Cl)cc2)C12c1ccccc1-c1ccccc12`, 1880 nM. For `FC(F)(F)c1nc(-c2cccs2)ncc1-c1nnnn1-c1ccc(Cl)cc1`, the AC50 was 2100 nM. As for `Cc1ccc(S(=O)(=O)Nc2ccc(O)c3ncccc23)cc1`, the figure is 1550 nM. As for `Oc1c(C(Nc2cccc(C(F)(F)F)c2)c2ccncc2)ccc2cccnc12` (stereo not drawn), the figure is 5800 nM. As for `CCN(CC)CCNC(=O)CSc1c2c(nc3cc(Cl)ccc13)CCCC2`, the figure is 14900 nM.

Consider `COc1ccc(-n2ncc3c(N4CCCCC4)ncnc32)cc1`, for which the half-maximal activity concentration (AC50) was 2870 nM. The same measure for `COc1cc(C2c3cc4c(cc3C(OC3OC5COC(c6cccs6)OC5C(O)C3O)C3COC(=O)C23)OCO4)cc(OC)c1O` (stereo not drawn): 1110 nM. As for `COC(=O)c1ccccc1NC(=S)N(Cc1ccc2c(c1)OCO2)Cc1cc2cc(OC)ccc2[nH]c1=O`, the figure is 10400 nM; as for `Cc1ccc(Cn2c(=N)n(CC(O)COc3ccccc3)c3ccccc32)cc1` (stereo not drawn), 2460 nM; as for `Cn1nc(C(C)(C)C)cc1C(=O)N1CCCCC1c1cc(C(=O)Nc2ccc(F)c(Cl)c2)no1` (stereo not drawn), 3040 nM. As for `Cc1ccc(NC(=O)c2ccc(Cl)c(N3C(=O)C=CC3=O)c2)cc1`, the figure is 1600 nM; as for `O=C(OCCN1C(=O)c2cccc3c(N4CCOCC4)ccc(c23)C1=O)c1ccccc1Cl`, 3060 nM.

The record behind these values is PubChem BioAssay AID743417 (Broad Institute, 2014).
